Measurements from US9795650B2, “Romidepsin formulations and uses thereof” (Celgene Corporation, priority 2013, dated 2017).

Test: Solubility of romidepsin in solvents
Format: physicochemical
Text: In one embodiment, the romidepsin liquid concentrate for dilution is formulated in a solvent system. […] Solubility of romidepsin was studied in the following solvents and solvent mixtures: glycerin:EtOH (1:1); PEG 300; PEG 400; Tween 80:EtOH (1:1); dimethylacetamide (DMA); SolutolHS15:EtOH (1:1); NMP; Water; EtOH:PEG 400 (1:1); EtOH;water (4:6); EtOH; EtOH:PG (80:20); EtOH:PG (60:40); EtOH:PG (40:60); EtOH:PG (20:80); PG; EtOH:PG (40:60)+10% water; EtOH:PG (40:60)+butylated hydroxyanizole (BHA)/butylated hydroxytoluebe (BHT); and EtOH:PG (40:60)+ascorbic acid.

SMILES: C/C=C1\NC(=O)[C@H]2CSSCC/C=C/[C@H](CC(=O)N[C@H](C(C)C)C(=O)N2)OC(=O)[C@H](C(C)C)NC1=O [Romidepsin]
- Solubility in water: practically insoluble in water
